Measurements reported in patent US10752626B2, “Iso-citrate dehydrogenase (IDH) inhibitor” (SHANGHAI METON PHARMACEUTICAL CO., LTD, priority 2016, dated 2020).

Legend:
[1] = Metabolic stability in dog liver microsome; conditions: for K: Mean; for microsomal CLint at 1 μM / half-life at 1 μM: microsomes, pH 7.4
Procedure: The liver microsomes of mouse, rat, dog, monkey and human were purchased from Corning Inc., and were stored at −60° C. prior to use. The acetonitrile and NADPH were purchased from Honeywell International Inc. (New Jersey, U.S.) and Roche Inc. (Basel, Swiss).
Reactions were initiated by adding NADPH to a final concentration of 1 mM. The final volume of each reaction mixture was 0.2 ml, and all reactions were performed in duplicate. At each set time point (0, 5, 15, 30 and 60 min), a small aliquot (e.g., 20 μl) was transferred from the reaction system into ice-cold internal standard (IS) containing acetonitrile to quench the reaction and to precipitate the protein. After vortex and centrifuge at 3700 rpm for 10 min, the supernatant was injected into LC-MS/MS for analysis.
In vitro microsomal clearance was estimated based on determination of elimination half-life (T1/2) of compounds disappearance from their initial concentrations. Peak area ratios of each compound (test or control) to IS was calculated. Ln (% Control) versus Incubation Time (min) curve was plotted, and the slope of a linear fitting line was calculated. Drug elimination rate constant k (min^−1), T1/2 (min), and in vitro intrinsic clearance CLint (mL·min^−1·mg^−1 proteins) was calculated according to the following equations: k=−slope T1/2=0.693/k CLint=k/Cprotein where Cprotein (mg·mL^−1) is the microsomal protein concentration in the incubation system. Test 3: Metabolic Stability Assay in Mouse Plasma
In this study, the metabolic stability of the compounds was assessed in mouse, rat, dog, monkey and human liver microsome according to the method disclosed in Test 2 of the Biological evaluation section.

IDH1 R132C = IDH1 R132C (Homo sapiens (Human), UniProt O75874, R132C); test: Biochemical assay for inhibition of mutant IDH1 R132C; conditions: tested in triplet
Text: The present disclosure provides a biochemical assay method for detecting the IDH inhibition and selectivity of the compounds by detecting IDH enzyme activity directly.
Wild-type IDH enzyme could convert NADP^+ to NADPH when it catalyzes the α-KG producing reaction. Mutant IDH enzyme could convert NADPH to NADP^+ when it catalyzes the D-2-HG producing reaction. So the activity of wild-type and mutant IDH1/2 could be measured by monitoring NADPH level change: in the reaction catalyzed by wild-type IDH1/2, the newly generated NADPH is utilized instantly by coupled diaphorase-resazurin reaction to generate resorufin which is fluorescent (at Excitation 544 nm, Emission 590 nm) and thus NADPH is monitored indirectly; while in the reaction catalyzed by mutant IDH1/2, NADPH is directly monitored as it is fluorescent (at Excitation 340 nm, Emission 460 nm). By monitoring the change of NADPH level in the reaction, the enzyme activity could be determined rapidly and efficiently, IC50 of a compound could also be assayed.
The test compounds were prepared into 50 mM stock solutions in DMSO and stored at −20° C. Each test compound stock was further diluted to obtain a 100× stock solution at a concentration of 200 μM, 100 μM, 50 μM, 25 μM, 12.5 jμM, 6.25 μM and 3.125 μM, respectively, for the final use on the day of test.
Inhibition of Mutant IDHJ (R132H or R132C):
Solution A was prepared by combining 1 M Tris-HCl pH7.5 (300 μL), 5 M NaCl (450 μL), 1 M MgCl2 (150 μL), 1 M DTT (15 μL), 20 mg/mL BSA (37.5 μL), 20 mM NADPH (20 μL), and 0.5 mM α-KG (40 μL), followed by adding deionized water to a final volume of 15 mL.
Reaction buffer was prepared by combining 1 M Tris-HCl pH 7.5 (200 μL), 5 M NaCl (300 μL), 1 M MgCl2 (100 μL), 1 M DTT (10 μL) and 20 mg/mL BSA (25 μL), followed by adding deionized water to a final volume of 10 mL.
Solution B was prepared by combining the reaction buffer (5 mL) and […] IDH1-R132H (5.21 μL) or 107 μM IDH1-R132C (4.67 μL).
148 μL Solution A was added into each sample well of a 96-well plate P1, and then 2 μL of the test compound solution at each concentration and 2 μL of DMSO (negative control/blank) were added into individual sample well respectively. 50 μL of Solution B was added into each of the sample wells having test compounds and one sample well having DMSO only, and 50 μL of reaction buffer was added into another sample well having DMSO only, respectively. P1 was put into BioTek Synergy H4 Microplate reader (BioTek Instruments Inc., Winooski, U.S.), and the program was set as follows: 37° C., shake plate 5 seconds, run kinetic mode, total detection time 20 min, detection intervals 40 seconds, detection mode fluorescence (at Excitation 340 nm, Emission 460 nm). The data were exported, the relative enzyme activity and the half-maximal inhibitory concentration (IC50) for the test compound were calculated. Relative enzyme activity was calculated as the absolute value of the slope of the Emission 460 reads of each well plotted against time (which represents the conversion rate of ca-KG to 2-HG through IDH1 modulated utilization of NADPH). The Dose-response curve was drawn and the IC50 was calculated via fitting. The IDH inhibition and selectivity of each test compound can be evaluated according to the effect of the compounds on the IDH enzyme activity.
The IDH inhibition activity of the compounds were assessed according to Test 5 of the Biological evaluation section. The test for mutant IDH1 R132H/R132C inhibition of each compound was carried out in triplet. For IDH1 R132H, the enzyme activity of exemplary Compounds 16, 21, 22, 23, 24 and 31 is plotted as a function of logarithm of the concentration of the compound in FIGS. 8A-8C, 9A-9C, 10A-10C, 11A-11C, 12A-12C and 13A-13C, respectively. […]

Chain of IDH1 R132C (O75874 whole entry R132C): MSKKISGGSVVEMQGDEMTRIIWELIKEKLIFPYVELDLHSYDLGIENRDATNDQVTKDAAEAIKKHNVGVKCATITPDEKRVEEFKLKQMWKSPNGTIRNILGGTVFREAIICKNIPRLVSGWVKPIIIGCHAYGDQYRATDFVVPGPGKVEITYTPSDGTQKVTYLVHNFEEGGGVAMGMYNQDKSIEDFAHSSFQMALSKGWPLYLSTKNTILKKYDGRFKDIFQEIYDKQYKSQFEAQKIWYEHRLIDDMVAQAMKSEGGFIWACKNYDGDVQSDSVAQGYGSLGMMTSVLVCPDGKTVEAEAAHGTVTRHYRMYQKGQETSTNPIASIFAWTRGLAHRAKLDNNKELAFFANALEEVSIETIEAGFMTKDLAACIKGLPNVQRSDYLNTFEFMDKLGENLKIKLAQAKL

Structure (SMILES)	IC50 (IDH1 R132C)	also measured
Cc1ncc2n1-c1ccc(Cl)cc1C(c1ccccc1F)=NC2 [Positive control, Midazolam, reference compound]	–	K ([1]; dog liver microsome): 0.140 min⁻¹; microsomal CLint at 1 μM ([1]; dog): 702 µL/min/mg; K ([1]; human liver microsome): 0.0612 min⁻¹; half-life at 1 μM ([1]; human): 11.3 min; microsomal CLint at 1 μM ([1]; human): 306 µL/min/mg; K ([1]; monkey liver microsome): 0.211 min⁻¹; half-life at 1 μM ([1]; monkey): 3.29 min; microsomal CLint at 1 μM ([1]; monkey): 1050 µL/min/mg; K ([1]; mouse liver microsome): 0.0964 min⁻¹; half-life at 1 μM ([1]; mouse): 7.19 min; microsomal CLint at 1 μM ([1]; mouse): 482 µL/min/mg; K ([1]; rat liver microsome): 0.174 min⁻¹; half-life at 1 μM ([1]; rat): 3.98 min; microsomal CLint at 1 μM ([1]; rat): 871 µL/min/mg
CCN1Cc2c(ccnc2N[C@@H](C)c2ccc(Oc3ccc(OC)cc3)cc2)C1=O [Compound 19, (S)-2-ethyl-4-(1-(4-(4-methoxyphenoxy)phenyl)ethylamino)-2,3-dihydro-1H-pyrrolo[3,4-c]pyridin-1-one]	≤ 1.5 µM	–
CCN1Cc2c(ccnc2N[C@@H](C)c2ccc(Oc3cccc(C)c3)cc2)C1=O [Compound 15, (S)-2-ethyl-4-((1-(4-(m-tolyloxy)phenyl)ethyl)amino)-2,3-dihydro-1H-pyrrolo[3,4-c]pyridin-1-one]	≤ 1.5 µM	–
COc1ccc(CN2Cc3c(ccnc3N[C@@H](C)c3ccccc3)C2=O)cc1 [Compound 7, (S)-2-(4-methoxybenzyl)-4-(1-phenylethylamino)-2,3-dihydro-1H-pyrrolo[3,4-c]pyridin-1-one]	10 to 15 µM	–
CCN1Cc2c(ccnc2N[C@@H](C)c2ccc(-c3cn(C)nn3)cc2)C1=O [Compound 14, (S)-2-ethyl-4-(1-(4-(1-methyl-1H-1,2,3-triazol-4-yl)phenyl)ethylamino)-2,3-dihydro-1H-pyrrolo[3,4-c]pyridin-1-one]	10 to 15 µM	–
CCN1Cc2c(ccnc2N[C@@H](C)c2ccc(Br)cc2)C1=O [Compound 1, (S)-4-(1-(4-bromophenyl)ethylamino)-2-ethyl-2,3-dihydro-1H-pyrrolo[3,4-c]pyridin-1-one]	10 to 15 µM	–
CCOC(=O)c1ccc([C@H](C)Nc2nccc3c2CN(CC)C3=O)cc1 [Compound 12, (S)-ethyl-4-(1-(2-ethyl-1-oxo-2,3-dihydro-1H-pyrrolo[3,4-c]pyridin-4-ylamino)ethyl)benzoate]	10 to 15 µM	–
CCN1Cc2c(ccnc2N[C@@H](C)c2ccc(Oc3ccccc3C)cc2)C1=O [Compound 17, (S)-2-ethyl-4-(1-(4-(o-tolyloxy)phenyl)ethylamino)-2,3-dihydro-1H-pyrrolo [3,4-c]pyridin-1-one]	≤ 1.5 µM	–
COCCN1Cc2c(ccnc2N[C@@H](C)c2ccccc2)C1=O [Compound 9, (S)-2-(2-methoxyethyl)-4-(1-phenylethylamino)-2,3-dihydro-1H-pyrrolo[3,4-c]pyridin-1-one]	10 to 15 µM	–
CCN1Cc2c(ccnc2N[C@@H](C)c2ccc(C(=O)Nc3ccccc3)cc2)C1=O [Compound 13, (S)-4-(1-(2-ethyl-1-oxo-2,3-dihydro-1H-pyrrolo[3,4-c]pyridin-4-ylamino)ethyl)-N-phenylbenzamide]	10 to 15 µM	–
CCN1Cc2c(ccnc2N[C@@H](C)c2ccc(F)cc2)C1=O [Compound 2, (S)-2-ethyl-4-(1-(4-fluorophenyl)ethylamino)-2,3-dihydro-1H-pyrrolo[3,4-c]pyridin-1-one]	10 to 15 µM	–
CCCCN1Cc2c(ccnc2N[C@@H](C)c2ccccc2)C1=O [Compound 5, (S)-2-butyl-4-(1-phenylethylamino)-2,3-dihydro-1H-pyrrolo[3,4-c]pyridin-1-one]	10 to 15 µM	–
C[C@H](Nc1nccc2c1CN(C1CC1)C2=O)c1ccccc1 [Compound 4, (S)-2-cyclopropyl-4-(1-phenylethylamino)-2,3-dihydro-1H-pyrrolo[3,4-c]pyridin-1-one]	10 to 15 µM	–
CC(C)N1Cc2c(ccnc2N[C@@H](C)c2ccccc2)C1=O [Compound 8, (S)-2-isopropyl-4-(1-phenylethylamino)-2,3-dihydro-1H-pyrrolo[3,4-c]pyridin-1-one]	10 to 15 µM	–
CCN1Cc2c(ccnc2N[C@@H](C)c2ccc(Oc3ccc(F)cc3)cc2)C1=O [Compound 20, (S)-2-ethyl-4-(1-(4-(4-fluorophenoxy)phenyl)ethylamino)-2,3-dihydro-1H-pyrrolo[3,4-c]pyridin-1-one]	1.5 to 10 µM	–
CCN1Cc2c(ccnc2N[C@@H](C)c2ccc(C)cc2)C1=O [Compound 3, (S)-2-ethyl-4-(1-p-tolylethylamino)-2,3-dihydro-1H-pyrrolo[3,4-c]pyridin-1-one]	10 to 15 µM	–
CCN1Cc2c(ccnc2N[C@@H](C)c2ccc(OC)cc2)C1=O [Compound 11, (S)-2-ethyl-4-(1-(4-methoxyphenyl)ethylamino)-2,3-dihydro-1H-pyrrolo[3,4-c]pyridin-1-one]	10 to 15 µM	–
C[C@H](Nc1nccc2c1CN(Cc1ccccc1)C2=O)c1ccccc1 [Compound 6, (S)-2-benzyl-4-(1-phenylethylamino)-2,3-dihydro-1H-pyrrolo[3,4-c]pyridin-1-one]	10 to 15 µM	–
CCN1Cc2c(ccnc2N[C@@H](C)c2ccccc2)C1=O [Compound 10, (S)-2-ethyl-4-(1-phenylethylamino)-2,3-dihydro-1H-pyrrolo[3,4-c]pyridin-1-one]	10 to 15 µM	–
CCN1Cc2c(ccnc2N[C@@H](C)c2ccc(Oc3ccccc3)cc2)C1=O [Compound 18, (S)-2-ethyl-4-(1-(4-phenoxyphenyl)ethylamino)-2,3-dihydro-1H-pyrrolo[3,4-c]pyridin-1-one]	≤ 1.5 µM	–
